In US20240216395A1, “19-NOR C3,3-DISUBSTITUTED C21 -N-PYRAZOLYL STEROID FOR USE IN TREATING MAJOR DEPRESSIVE DISORDER AND […]” (priority 2021, published 2024):
Where “and” joins values, the source holds several entries; their conditions need not be identical. Equal values may be shown once.

Tested on: adult subjects with major depressive disorder (MDD)
Test: Phase 3 placebo-controlled study of Compound (1) 50 mg QD for 14 days in MDD (NCT04442490): efficacy scales
Format: in vivo, human
Details: for Day 15 HAMD-17 improvement maintained on average: Day 15 HAMD-17 responders; for Day 15 MADRS improvement maintained on average: Day 15 MADRS responders
Description: Title of Study: A Phase 3, Multicenter, Double-Blind, Randomized, Placebo-Controlled Study Evaluating the Efficacy of Compound (1) in the Treatment of Adult Subjects with Major Depressive Disorder
This was a randomized, double-blind, parallel-group, placebo-controlled study in subjects with MDD. The diagnosis of MDD was made according to Structured Clinical Interview for Diagnostic and DSM-5 Clinical Trial Version (SCID-5-CT) performed by a qualified healthcare professional.
Eligible subjects were stratified based on use of antidepressant treatment (current/stable or not treated/withdrawn ≥60 days) and randomized within each stratum to one of 2 treatment groups (Compound (1)—50 mg or matching placebo) in a 1:1 ratio. Subjects self-administered study drug once daily at approximately 8 PM with fat-containing food (e.g., within 1 hour of an evening meal which contains fat or with a fat-containing snack), on an outpatient basis, for 14 days. Subjects returned to the study center during the treatment and follow-up periods as outlined in Table 1.
Subjects self-administered Compound (1) (50 mg or 40 mg [for dose adjustments only as permitted]) or matching placebo orally once daily at approximately 8 PM with food for 14 days. The 50-mg and 40-mg doses was administered as 2 capsules per dose (50 mg, administered as one 30 mg-capsule and one 20-mg capsule, and 40-mg, administered as two 20-mg capsules). Placebo was also administered as 2 capsules to maintain the blind.
The estimand for the primary efficacy analysis was the mean change from baseline in HAM-D total score at Day 15. This was analyzed using a mixed effects model for repeated measures (MMRM); the model included treatment, baseline HAM-D total score, stratification factor, assessment time point, and time point-by-treatment as explanatory variables. All explanatory variables were treated as fixed effects. All post-baseline time points were included in the model. The main comparison was between Compound (1) and placebo at the 15-day time point. Model-based point estimates (e.g., least squares [LS] means, 95% confidence intervals, and p-values) were reported where applicable. An unstructured covariance structure was used to model the within-subject errors. If there was a convergence issue with the unstructured covariance model, Toeplitz, or Autoregressive (1) [AR(1)] covariance structure was used, following this sequence until convergence was achieved. […] When the covariance structure was not UN, the sandwich estimator for the variance covariance matrix was derived, using the EMPIRICAL option in the PROC MIXED statement in SAS.
Similar to those methods described above for the primary endpoint, an MMRM was used for the analysis of the change from baseline in other time points in HAM-D total score, MADRS total score, HAM-A total score, SF-36v2 score, PHQ-9 score, and selected individual items and/or subscale scores in HAM-D for change from baseline.
Generalized estimating equation (GEE) methods were used for the analysis of HAM-D Response (defined as ≥50% reduction from baseline in HAM-D total score) and HAM-D Remission (defined as HAM-D total score of ≤7.0). GEE models included terms for treatment, baseline score, stratification factor, assessment time point, and time point-by-treatment as explanatory variables. The comparison of interest was the difference between Compound (1) and matching placebo at the 15-day time point. Model-based point estimates (e.g., odds ratios), 95% confidence intervals, and p-values were reported.
A GEE method was also used for the analysis of CGI-I Response including terms for treatment, baseline CGI-S score, stratification factor, assessment time point, and time point-by-treatment as explanatory variables.
Compound (1) is an investigational two-week, once-daily oral drug for MDD that represents a potential new class of drug for the management of this common but serious mental health disorder. […]

Structure (SMILES): C[C@@]1(O)CC[C@H]2[C@H](CC[C@@H]3[C@@H]2CC[C@]2(C)[C@@H](C(=O)Cn4cc(C#N)cn4)CC[C@@H]32)C1 [Compound (1), 1-(2-((3R,5R,8R,9R,10S,13S,14S,17S)-3-hydroxy-3,13-dimethylhexadecahydro-1H-cyclopenta[a]phenanthren-17-yl)-2-oxoethyl)-1H-pyrazole-4-carbonitrile]
- HAMD-17 Remission odds ratio (95% CI) vs placebo (ADT=No, Day 3): 2.4 (0.91, 6.58)
- HAMD-17 Response odds ratio (95% CI) vs placebo (ADT=No, Day 3): 2.3 (1.36, 3.79)
- HAMD-17 Remission odds ratio (95% CI) vs placebo (ADT=No, Day 8): 2.1 (1.14, 3.91)
- HAMD-17 Response odds ratio (95% CI) vs placebo (ADT=No, Day 8): 1.7 (1.08, 2.58)
- HAMD-17 Remission odds ratio (95% CI) vs placebo (ADT=No, Day 12): 1.5 (0.92, 2.44)
- HAMD-17 Response odds ratio (95% CI) vs placebo (ADT=No, Day 12): 1.5 (1.02, 2.35)
- HAMD-17 Remission odds ratio (95% CI) vs placebo (ADT=No, Day 15): 1.1 (0.70, 1.76)
- HAMD-17 Response (ADT=No, Day 15): 55.5 n/N (%)
- HAMD-17 Response odds ratio (95% CI) vs placebo (ADT=No, Day 15): 1.4 (0.92, 2.12)
- HAMD-17 Remission odds ratio (95% CI) vs placebo (ADT=No, Day 21): 1.0 (0.62, 1.65)
- HAMD-17 Response odds ratio (95% CI) vs placebo (ADT=No, Day 21): 1.1 (0.73, 1.70)
- HAMD-17 Remission odds ratio (95% CI) vs placebo (ADT=No, Day 28): 0.86 (0.52, 1.41)
- HAMD-17 Response odds ratio (95% CI) vs placebo (ADT=No, Day 28): 1.0 (0.65, 1.55)
- HAMD-17 Remission odds ratio (95% CI) vs placebo (ADT=No, Day 35): 1.1 (0.66, 1.74)
- HAMD-17 Response odds ratio (95% CI) vs placebo (ADT=No, Day 35): 1.1 (0.72, 1.70)
- HAMD-17 Remission odds ratio (95% CI) vs placebo (ADT=No, Day 42): 1.0 (0.61, 1.55)
- HAMD-17 Response odds ratio (95% CI) vs placebo (ADT=No, Day 42): 1.2 (0.81, 1.90)
- HAMD-17 Response odds ratio (95% CI) vs placebo (ADT=Yes, Day 3): 1.9 (0.87, 3.98)
- HAMD-17 Response odds ratio (95% CI) vs placebo (ADT=Yes, Day 8): 1.9 (1.01, 3.73)
- HAMD-17 Response odds ratio (95% CI) vs placebo (ADT=Yes, Day 12): 1.9 (0.98, 3.58)
- HAMD-17 Response (ADT=Yes, Day 15): 57.3 n/N (%)
- HAMD-17 Response odds ratio (95% CI) vs placebo (ADT=Yes, Day 15): 1.4 (0.74, 2.71)
- HAMD-17 Response odds ratio (95% CI) vs placebo (ADT=Yes, Day 21): 1.8 (0.95, 3.53)
- HAMD-17 Response odds ratio (95% CI) vs placebo (ADT=Yes, Day 28): 1.4 (0.72, 2.64)
- HAMD-17 Response odds ratio (95% CI) vs placebo (ADT=Yes, Day 35): 1.4 (0.76, 2.75)
- HAMD-17 Response odds ratio (95% CI) vs placebo (ADT=Yes, Day 42): 1.7 (0.91, 3.34)
- CGI-Improvement Response odds ratio vs placebo (Day 3): 1.8 (0.0032)
- CGI-Severity LS mean TRT diff vs placebo (Day 3): −0.4 (<0.0001)
- HAMD-17 total score LS mean (SE) CFB (Day 3): −9.8 (0.38)
- HAMD-17 total score LS mean TRT diff vs placebo (Day 3): −3.0 (<0.0001) points
- CGI-Improvement Response odds ratio vs placebo (Day 8): 1.9 (0.0005)
- CGI-Severity LS mean TRT diff vs placebo (Day 8): −0.4 (0.0001)
- HAM-A total score LS mean (SE) CFB (Day 8): −8.7 (0.40)
- HAMD-17 total score LS mean (SE) CFB (Day 8): −12.0 (0.45)
- MADRS total score LSM (SE) CFB (Day 8): −14.6 (0.69)
- CGI-Improvement Response odds ratio vs placebo (Day 12): 1.6 (0.0101)
- CGI-Severity LS mean TRT diff vs placebo (Day 12): −0.3 (0.0014)
- CGI-Improvement Response odds ratio vs placebo (Day 15): 1.5 (0.0191)
- HAM-A total score LS mean (SE) CFB (Day 15): −10.4 (0.43)
- HAMD-17 Anxiety subscale LSM difference vs placebo (Day 15): −0.9 points
- HAMD-17 Bech-6 subscale LSM difference vs placebo (Day 15): −3.2 points
- HAMD-17 Core Depression subscale LSM difference vs placebo (Day 15): −2.0 points
- HAMD-17 Maier subscale LSM difference vs placebo (Day 15): −3.0 points
- HAMD-17 early insomnia item mean reduction from baseline (Day 15): −1.0
- HAMD-17 late insomnia item mean reduction from baseline (Day 15): −0.8
- HAMD-17 middle insomnia item mean reduction from baseline (Day 15): −1.2
- HAMD-17 total score LS mean (SE) CFB (Day 15): −14.1 (0.51)
- MADRS Response (≥50% reduction) rate (Day 15): 51.6%
- MADRS total score LS mean TRT diff vs placebo (Day 15): −2.4 points and −2.4 (0.0238) points
- SF-36v2 Bodily Pain (BP) CFB (Day 15): 5.26
- SF-36v2 General Health (GH) CFB (Day 15): 4.51
- SF-36v2 Mental Health (MH) CFB (Day 15): 14.45
- SF-36v2 Physical-Functioning (PF) CFB (Day 15): 3.41
- SF-36v2 Role-Emotional (RE) CFB (Day 15): 14.19
- SF-36v2 Role-Physical (RP) CFB (Day 15): 3.45
- SF-36v2 Social-Functioning (SF) CFB (Day 15): 12.89
- SF-36v2 Vitality (V) CFB (Day 15): 13.12
- SF-36v2 least-squares mean vitality score increase versus placebo (Day 15): 3.1
- HAMD-17 total score LS mean TRT diff vs placebo (Day 15 (primary endpoint)): −1.7 points and −1.7 (0.0141) points
- HAMD-17 LSM treatment difference vs placebo, subgroup (Day 15, ADT use No (monotherapy)): −1.98
- HAMD-17 LSM treatment difference vs placebo, subgroup (Day 15, ADT use Yes (combination)): −1.21
- HAMD-17 LSM treatment difference vs placebo, subgroup (Day 15, age 18-24 years): −1.67
- HAMD-17 LSM treatment difference vs placebo, subgroup (Day 15, age 25-50 years): −1.96
- HAMD-17 LSM treatment difference vs placebo, subgroup (Day 15, age 51-64 years): −1.18
- HAMD-17 LSM treatment difference vs placebo, subgroup (Day 15, baseline BMI 18.5-24.9 kg/m^2): −1.02
- HAMD-17 LSM treatment difference vs placebo, subgroup (Day 15, baseline BMI 25-29.9 kg/m^2): −3.94
- HAMD-17 LSM treatment difference vs placebo, subgroup (Day 15, baseline BMI ≥30 kg/m^2): −1.04
- HAMD-17 LSM treatment difference vs placebo, subgroup (Day 15, baseline HAMD-17TS <26): −1.25
- HAMD-17 LSM treatment difference vs placebo, subgroup (Day 15, baseline HAMD-17TS ≥26): −1.91
- HAMD-17 LSM treatment difference vs placebo, subgroup (Day 15, female): −1.58
- HAMD-17 LSM treatment difference vs placebo, subgroup (Day 15, male): −1.81
- HAMD-17 LSM treatment difference vs placebo, subgroup (Day 15, race Black): −2.20
- HAMD-17 LSM treatment difference vs placebo, subgroup (Day 15, race Other): −4.22
- HAMD-17 LSM treatment difference vs placebo, subgroup (Day 15, race White): −1.47
- Day 15 HAMD-17 improvement maintained on average (Day 28): 81.7%
- Day 15 HAMD-17 improvement maintained on average (Day 42): 86.1%
- Day 15 MADRS improvement maintained on average (Day 28): 85.2%
- Day 15 MADRS improvement maintained on average (Day 42): 87.6%
- Patients retaining ≥65% of Day 15 HAMD-17 improvement (Day 21): 81.0%
- MADRS total score LS mean TRT diff vs placebo (Day 28): −1.5
- MADRS total score LSM (SE) CFB (Day 28): −16.4 (0.80)
- HAMD-17 total score LS mean (SE) CFB (Day 42): −13.5 (0.55)
- HAMD-17 total score LS mean TRT diff vs placebo (Day 42): −0.9
- MADRS total score LS mean TRT diff vs placebo (Day 42): −1.3
- MADRS total score LSM (SE) CFB (Day 42): −17.5 (0.83)
- Patients retaining ≥65% of Day 15 HAMD-17 improvement (Day 42): 75.4% and 74.9%
- HAMD-17 Remission (HAMD-17≤7) rate (overall, Day 3): 7.6%
- HAMD-17 Remission odds ratio vs placebo (overall, Day 3): 3.57
- HAMD-17 Response (≥50% reduction) rate (overall, Day 3): 29.3%
- HAMD-17 Response odds ratio vs placebo (overall, Day 3): 2.14
- HAMD-17 Response (≥50% reduction) rate (overall, Day 15): 56.0%
- HAMD-17 Response odds ratio vs placebo (overall, Day 15): 1.40
